Measured values reported in patent publication US8703767B2, “Substituted N-(3-(pyrimidin-4-yl)phenyl)acrylamide analogs as tyrosine receptor kinase BTK inhibitors” (University of Utah Research Foundation, priority 2011, dated 2014).
Blank lines part the entries; values can stand above or below the molecule they belong to.

Assays:
Ramos RA-1 = test: Cell viability assay (ATP-lite), Ramos RA-1; type: cell-based; conditions: Homo sapiens, 96 hours
Method: (§1) All cell lines were cultured in RPMI-1640 media supplemented with 10% fetal bovine serum (“FBS”) and 1% penicillin/streptomycin (100 IU/mL penicillin and 100 μg/mL streptomycin) at 37° C. and 5% CO2. ATCC is the American Type Culture Collection (Manassas, Va.), and DSMZ is the Deutsche Sammlung von Mikroorganismen and Zellkulturen GmbH (German Collection of Microorganims and Cell Cultures; Braunschweig, Germany). The cell lines typically used in these studies are indicated below in Table II.
(§2) The cells were grown as described above, and for the assay cells were freshly harvested and then were plated in […] of appropriate media (as described above) at a density of 1000 cells per well in standard solid white-walled 384-well plates. Cells were allowed to attach by incubation overnight at 37° C. and 5% CO2. Test compounds were diluted to 10× concentrations in the appropriate media for the cell used (containing 3% DMSO) and […] of these dilutions were appropriate wells containing the cells. Test compounds were typically tested in triplicate (i.e. a given concentration of compound was assayed in triplicate wells). The plates containing the drug-treated cells and appropriate controls were incubated for 96 hours. At the end of the incubation, […] of ATP-lite (PerkinElmer, Inc., Waltham, Mass.) reagent were added to each well and luminescence signal was measured on an EnVision microplate reader.
(§3) IC50 values are determined using GraphPad Prism 5 software. The data were entered as an X-Y plot into the software as percent inhibition for each concentration of the drug. The concentration values of the drug were log transformed and the nonlinear regression was carried out using the “sigmoidal dose-response (variable slope)” option within the GraphPad software to model the data and calculate IC50 values. The IC50 values reported are the concentration of drug at which 50% inhibition was reached.
The ability of compounds to inhibit the viability of cultured cells was determined using the cell viability assay described above. Activity data for representative compounds is shown below in Table III below for the compounds tested using the indicated cell lines (Ramos RA-1, GRANTA-519, and BxPC-3). IC50 values were determined as described above. If an IC50 is indicated as “n.d.”, it was not determined in the indicated cell line.

BTK kinase = BTK kinase (Homo sapiens (Human), UniProt Q06187); test: BTK kinase assay: time resolved-FRET (HTRF) assay; type: biochemical; conditions: 10 nM BTK, 60 μM ATP, 1 μM substrate, 60 min
Sequence of BTK kinase (Q06187 whole entry): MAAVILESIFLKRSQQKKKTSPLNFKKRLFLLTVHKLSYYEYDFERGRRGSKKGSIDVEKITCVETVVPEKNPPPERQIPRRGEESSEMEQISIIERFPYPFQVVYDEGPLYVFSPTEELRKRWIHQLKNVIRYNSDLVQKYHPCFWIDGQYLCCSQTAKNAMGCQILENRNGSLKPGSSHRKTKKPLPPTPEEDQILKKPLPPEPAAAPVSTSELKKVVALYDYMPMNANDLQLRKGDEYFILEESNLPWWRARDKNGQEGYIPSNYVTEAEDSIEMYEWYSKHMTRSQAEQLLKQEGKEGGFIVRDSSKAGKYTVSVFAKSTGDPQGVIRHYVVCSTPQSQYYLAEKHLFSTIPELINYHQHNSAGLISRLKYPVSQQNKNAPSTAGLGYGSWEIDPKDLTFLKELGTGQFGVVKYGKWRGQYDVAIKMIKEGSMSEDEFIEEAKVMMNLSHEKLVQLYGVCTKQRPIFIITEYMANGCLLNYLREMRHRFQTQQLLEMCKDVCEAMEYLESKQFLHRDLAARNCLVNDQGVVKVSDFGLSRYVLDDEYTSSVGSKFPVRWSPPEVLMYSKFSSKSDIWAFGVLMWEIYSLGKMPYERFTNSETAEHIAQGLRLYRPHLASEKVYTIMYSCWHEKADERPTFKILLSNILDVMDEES
Method: The secondary assay was a time resolved-FRET kinase assay. Test compound are diluted to desired concentrations in kinase reaction buffer and briefly incubated with BTK kinase (as described above; Invitrogen). The reaction is initiated by the addition of ATP and enzyme substrate, HTRF® KinEASE™-TK Substrate-biotin (Cisbio US, Bedford, Mass.). The composition of the reaction (10 μl) was: 1% v/v DMSO, 10 nM BTK, 60 μM ATP, and 1 μM substrate. After incubation at room temperature for 60 min, the enzyme reaction is stopped by EDTA-containing buffer, which also contains europium-labeled (Eu^3+-Cryptate) anti-phosphotyrosine antibody (Cisbio) and Streptavidin-XL665 (Cisbio). The europium-labeled antibody generates a time-resolved FRET signal with the Stepavidin-XL665, which binds to the biotinylated TK substrate through the streptavidin conjugate when the substrate is phosphorylated. After one hour incubation at room temperature, fluorescence was measured with excitation of 320 nm and dual emission of 615 and 665 nm on an EnVision microplate reader.
as §3

[1] = target: recombinant full-length human BTK kinase (Homo sapiens (Human), UniProt Q06187); test: BTK kinase assay: ADP generation assay; type: biochemical; conditions: 60 nM BTK, 1.6 μM ATP, 20 μM MBP substrate, 60 min
Sequence of recombinant full-length human BTK kinase (Q06187 whole entry): as above
Method: Test compounds were diluted to desired concentrations in kinase reaction buffer and briefly incubated with recombinant full-length human BTK kinase with a (His)6 tag (81.3 kDa; Invitrogen Corporation, Carlsbad, Calif.). The assay as described is based on volumes used in a standard 384 well format using solid, white-wall plates. The reaction was subsequently initiated by the addition of ATP and myelin basic protein (MBP) substrate (Millipore Corporation, Waltham, Mass.). Composition of the assay reaction mixture ([…]) was: 5% v/v DMSO, 60 nM BTK, 1.6 μM ATP, and 20 μM MBP substrate. After incubation at room temperature for 60 min, […] (Promega Corporation, Madison, Wis.) was added to each well and incubated for an additional 40 minutes. The reagent stopped the kinase reaction and depleted the unconsumed ATP. Kinase Detection reagent ([…]; Promega Corporation) was then added to each well. The Kinase Detection reagent comprises reagents to convert ADP to ATP and provide luciferase and luciferin to detect ATP. Luminescence was measured on an EnVision microplate reader (PerkinElmer). The amount of luminescence from each reaction is directly correlated with BTK kinase activity. Percent inhibition and IC50 values were calculated by comparing enzyme activity in drug-treated wells to the appropriate controls.
as §3

BxPC-3 = test: Cell viability assay (ATP-lite), BxPC-3; type: cell-based; conditions: Homo sapiens, 96 hours
Method: as §1
(§4) The cells were grown as described above, and for the assay cells were freshly harvested and then were plated in […] of appropriate media (as described above) at a density of 1000 cells per well in standard solid white-walled 384-well plates. Cells were allowed to attach by incubation overnight at 37° C. and 5% CO2. […] At the end of the incubation, […] of ATP-lite (PerkinElmer, Inc., Waltham, Mass.) reagent were added to each well and luminescence signal was measured on an EnVision microplate reader.
(§5) IC50 values are determined using GraphPad Prism 5 software. […]
(§6) The ability of compounds to inhibit the viability of cultured cells was determined using the cell viability assay described above. […] IC50 values were determined as described above. If an IC50 is indicated as “n.d.”, it was not determined in the indicated cell line.

[2] = system: Tec family of kinase, as well as EGFR and ErbB4; test: Kinase profiling against a panel of 40 protein kinases; type: biochemical; conditions: 200 nM of test compound, ATP at Km apparent
Method: The specificity of kinase inhibition was assessed with a representative compound, N-(3-(5-chloro-2-((4-morpholinophenyl)amino)pyrimidin-4-yl)phenyl)acrylamide, by determining the activity of this test compound against a panel of protein kinases. Kinase profiling was performed against a focus panel of kinases relevant to BTK and the Tec family of protein kinases. […] The results from this screen confirmed good activity against the Tec family of kinase, as well as EGFR and ErbB4. These later two kinases are known to have a cysteine residue in a position suitable for reaction with the Michaels acceptor of the disclosed compounds.

OPM2 cells = test: Cell viability assay in OPM2 cells with endogenous levels of BTK; type: cell-based; conditions: Homo sapiens, OPM-2, absence of overexpressed BTK
Method: as §2
(§7) The compounds were assessed in a cell-viability assay in OPM2 cells that either expressed endogenous levels of BTK or overexpressed BTK from an expression construct. […] Cell viability or proliferation was determined using the ATPLite Luminescence Assay (PerkinElmer, Inc., Waltham, Mass.); a decrease in luminescence activity correlates with a decrease in cell viability or proliferation.

[3] = system: OPM2 cells overexpressing BTK; test: Cell viability assay in OPM2 cells overexpressing BTK; type: cell-based; conditions: Homo sapiens, OPM-2, presence of overexpressed BTK
Method: as §2, §7

wild-type EGFR (ErbB1) = wild-type EGFR (ErbB1) (Homo sapiens (Human), UniProt P00533); test: LanthaScreen Eu Kinase Binding Assay, wild-type EGFR; conditions: tracer displacement
Sequence of wild-type EGFR (ErbB1) (P00533 25-1210): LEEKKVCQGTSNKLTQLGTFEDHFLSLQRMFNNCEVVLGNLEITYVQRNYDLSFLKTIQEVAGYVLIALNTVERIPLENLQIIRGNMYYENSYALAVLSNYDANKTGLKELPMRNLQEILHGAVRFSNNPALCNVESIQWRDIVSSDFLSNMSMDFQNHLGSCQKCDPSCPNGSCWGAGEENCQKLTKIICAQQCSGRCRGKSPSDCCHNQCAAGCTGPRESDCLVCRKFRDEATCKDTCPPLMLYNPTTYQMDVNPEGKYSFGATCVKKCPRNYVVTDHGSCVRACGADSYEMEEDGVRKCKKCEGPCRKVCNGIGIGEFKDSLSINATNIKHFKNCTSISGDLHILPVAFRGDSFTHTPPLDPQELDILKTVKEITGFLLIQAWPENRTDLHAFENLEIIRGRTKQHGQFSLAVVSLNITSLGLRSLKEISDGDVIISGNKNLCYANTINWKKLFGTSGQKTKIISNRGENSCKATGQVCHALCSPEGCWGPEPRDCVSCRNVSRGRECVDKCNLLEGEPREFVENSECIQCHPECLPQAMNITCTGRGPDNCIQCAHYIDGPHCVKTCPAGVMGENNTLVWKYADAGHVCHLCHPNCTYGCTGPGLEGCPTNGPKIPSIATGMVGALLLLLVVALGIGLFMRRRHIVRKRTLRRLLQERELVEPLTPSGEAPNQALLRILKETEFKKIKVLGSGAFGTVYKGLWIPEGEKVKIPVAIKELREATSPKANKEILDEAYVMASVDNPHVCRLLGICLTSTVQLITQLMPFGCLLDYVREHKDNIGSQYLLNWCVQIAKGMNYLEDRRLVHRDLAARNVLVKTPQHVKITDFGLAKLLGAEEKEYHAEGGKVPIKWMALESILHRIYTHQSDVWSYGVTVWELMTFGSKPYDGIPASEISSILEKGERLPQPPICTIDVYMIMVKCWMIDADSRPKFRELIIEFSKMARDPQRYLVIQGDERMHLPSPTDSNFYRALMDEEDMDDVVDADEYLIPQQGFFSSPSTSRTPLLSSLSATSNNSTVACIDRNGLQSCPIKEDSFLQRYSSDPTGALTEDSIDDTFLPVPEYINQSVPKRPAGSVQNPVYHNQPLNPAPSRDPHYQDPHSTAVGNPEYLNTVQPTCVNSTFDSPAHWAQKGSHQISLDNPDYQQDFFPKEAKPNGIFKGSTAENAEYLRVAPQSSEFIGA
Method: (§8) Based on the results obtained in the foregoing experiment, representative compounds (N-(3-(5-chloro-2-((4-morpholinophenyl)amino)pyrimidin-4-yl)phenyl)acrylamide and N-(3-(6-((4-morpholinophenyl)amino)-1H-pyrazolo[3,4-d]pyrimidin-4-yl)phenyl)acrylamide) were assayed against wild-type and a mutant form (T790M) of EGFR. The compound activity against these kinases was determined using LanthaScreen™ Eu Kinase Bindng Assay (Invitrogen division of Life Technologies, Inc., Grand Island, N.Y.). The assay measures the activity of a compound to bind and displace a proprietary, Alexa Fluor® 647-labeled, ATP-competitive kinase inhibitor scaffold (kinase tracer) to EGFR.

[4] = Pharmacokinetic and bone marrow distribution study; type: in vivo; conditions: CD1 mice, 5 mg/kg iv
Method: To determine the ability of a disclosed compound, N-(3-(5-chloro-2-((4-morpholinophenyl)amino)pyrimidin-4-yl)phenyl)acrylamide, to partition to the bone, a pharmacokinetic study in mice was carried out and coupled with a bone marrow distribution study (see FIG. 18). Briefly, CD1 mice were dosed intravenously (“iv”) with 5 mg/kg of the test compound and three animals per time point (5 min to 8 hrs) were sacrificed. Blood (plasma) and bone marrow tissue (femur) were collected from each animal and analyzed by LC/MS for standard PK parameters. […] The baseline distribution to the bone marrow of the compound was also determined.

[5] = target: mutant form of EGFR (T790M) (Homo sapiens (Human), UniProt P00533, T790M); test: LanthaScreen Eu Kinase Binding Assay, EGFR T790M; conditions: tracer displacement
Sequence of mutant form of EGFR (T790M) (P00533 25-1210 T790M): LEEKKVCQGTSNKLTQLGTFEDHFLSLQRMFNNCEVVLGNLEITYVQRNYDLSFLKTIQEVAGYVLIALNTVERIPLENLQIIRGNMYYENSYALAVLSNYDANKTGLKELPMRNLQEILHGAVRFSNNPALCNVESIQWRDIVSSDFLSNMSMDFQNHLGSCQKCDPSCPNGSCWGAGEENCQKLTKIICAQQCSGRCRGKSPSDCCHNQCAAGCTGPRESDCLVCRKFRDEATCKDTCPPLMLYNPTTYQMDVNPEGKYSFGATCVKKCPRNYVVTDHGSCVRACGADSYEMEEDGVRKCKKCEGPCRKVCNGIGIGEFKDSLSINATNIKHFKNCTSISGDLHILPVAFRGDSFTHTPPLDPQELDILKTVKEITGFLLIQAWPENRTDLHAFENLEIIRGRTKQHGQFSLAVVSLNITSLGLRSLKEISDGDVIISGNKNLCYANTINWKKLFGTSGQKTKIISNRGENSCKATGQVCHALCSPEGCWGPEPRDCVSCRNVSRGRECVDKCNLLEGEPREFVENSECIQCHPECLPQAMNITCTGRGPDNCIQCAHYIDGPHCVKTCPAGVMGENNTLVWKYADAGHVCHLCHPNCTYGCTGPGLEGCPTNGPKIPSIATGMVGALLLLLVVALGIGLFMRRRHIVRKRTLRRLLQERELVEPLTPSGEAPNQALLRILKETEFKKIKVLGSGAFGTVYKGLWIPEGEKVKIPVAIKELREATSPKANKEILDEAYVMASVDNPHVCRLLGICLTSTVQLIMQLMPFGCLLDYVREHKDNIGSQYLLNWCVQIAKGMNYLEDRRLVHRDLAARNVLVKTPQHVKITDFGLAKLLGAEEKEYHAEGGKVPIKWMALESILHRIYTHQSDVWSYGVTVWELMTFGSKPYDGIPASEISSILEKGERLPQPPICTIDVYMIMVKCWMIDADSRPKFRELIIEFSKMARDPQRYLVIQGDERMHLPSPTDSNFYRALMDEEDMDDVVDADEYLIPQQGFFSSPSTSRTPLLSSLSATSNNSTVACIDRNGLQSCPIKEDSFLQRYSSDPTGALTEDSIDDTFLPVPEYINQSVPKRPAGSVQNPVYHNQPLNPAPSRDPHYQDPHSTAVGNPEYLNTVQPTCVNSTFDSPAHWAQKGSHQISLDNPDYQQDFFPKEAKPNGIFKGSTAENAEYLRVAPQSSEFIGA
Method: as §8

GRANTA-519 = test: Cell viability assay (ATP-lite), GRANTA-519; type: cell-based; conditions: Homo sapiens, 96 hours
Method: as §1, §4, §5, §6

Compound: C=CC(=O)Nc1cccc(-c2nc(Nc3ccc(N4CCOCC4)cc3)ncc2Nc2ccccc2)c1 [compound 6]
IC50 [1]: > 100 µM

Compound: C=CC(=O)Nc1cccc(-c2nc(Cl)ncc2Br)c1 [compound 10]
IC50 [1]: 4.7 µM

Compound: C=CC(=O)Nc1cccc(-c2nc(Cl)ncc2Cl)c1 [compound 11]
IC50 [1]: 14.4 µM

Compound: C=CC(=O)Nc1cccc(-c2nc(Nc3ccc(N4CCOCC4)cc3)ncc2Cl)c1 [N-(3-(5-chloro-2-((4-morpholinophenyl)amino)pyrimidin-4-yl)phenyl)acrylamide]
percent inhibition in kinase profiling [2]: good activity | IC50 (OPM2 cells): ~5.05 µM | IC50 [3]: ~0.586 µM | IC50 (wild-type EGFR (ErbB1)): 0.253 µM | dwell time, bone marrow compared to plasma [4]: higher in the bone marrow compared to plasma | plasma concentrations [4]: high plasma concentrations | time after which compound cleared in the elimination phase [4]: > 10 min | fold lower concentration in bone marrow than in plasma ([4]; mouse, bone marrow (femur) versus plasma, read-out: concentration in bone marrow compartment compared to plasma levels (fold less)): ~50 | half-life ([4]; mouse, plasma): ~45 min

Compound: C=CC(=O)Nc1cccc(-c2nc(Nc3ccc(N4CCOCC4)cc3)nc3[nH]ncc23)c1 [N-(3-(6-((4-morpholinophenyl)amino)-1H-pyrazolo[3,4-d]pyrimidin-4-yl)phenyl)acrylamide]
IC50 [5]: 0.00267 µM | IC50 (wild-type EGFR (ErbB1)): 0.105 µM

Compound: C=CC(=O)Nc1cccc(-c2nc(Nc3ccc(N4CCOCC4)cc3)ncc2Cl)c1 [compound 8]
IC50 (Ramos RA-1): 20.9 µM | IC50 (BTK kinase): 0.047 µM | IC50 [1]: 0.033 µM | IC50 (BxPC-3): 22.2 µM

Compound: C=CC(=O)Nc1cccc(-c2nc(Nc3ccc(N4CCN(C)CC4)cc3)nc3[nH]ncc23)c1 [compound 2]
IC50 (Ramos RA-1): 18.8 µM | IC50 (GRANTA-519): 13.7 µM

Further molecules by falling IC50 [1], results first:

IC50 [1]: 1.81 µM
Compound: C=CC(=O)Nc1cccc(-c2nc(Cl)ncc2Nc2ccccc2)c1 [compound 5]

IC50 [1]: 1.27 µM
Compound: C=CC(=O)Nc1cccc(-c2nc(Nc3ccc(N4CCN(C)CC4)cc3)ncc2Cl)c1 [compound 9]

IC50 [1]: 0.829 µM
Compound: C=CC(=O)Nc1cccc(-c2nc(Cl)ncc2Nc2cccc(F)c2)c1 [compound 12]

IC50 (BTK kinase): 0.287 µM | IC50 [1]: 0.518 µM
Compound: C=CC(=O)Nc1cccc(-c2nc(Nc3ccc(N4CCOCC4)c(F)c3)ncc2Cl)c1 [compound 7]

IC50 (Ramos RA-1): > 30 µM | IC50 (BTK kinase): 3.77 µM | IC50 [1]: 0.263 µM
Compound: C=CC(=O)Nc1cccc(-c2nc(Cl)nc3[nH]ncc23)c1 [compound 4]
IC50 (GRANTA-519): > 30 µM

IC50 (BTK kinase): 0.126 µM | IC50 [1]: 0.23 µM
Compound: C=CC(=O)Nc1cccc(-c2nc(Nc3ccc(N4CCOCC4)c(F)c3)nc3[nH]ncc23)c1 [compound 3]

IC50 (Ramos RA-1): > 30 µM | IC50 (BTK kinase): 0.045 µM | IC50 [1]: 0.079 µM | IC50 (BxPC-3): 7 µM
Compound: C=CC(=O)Nc1cccc(-c2nc(Nc3ccc(N4CCOCC4)cc3)nc3[nH]ncc23)c1 [compound 1]
